Reference: the supplement of paper PMC13380429

Experiments:
Details in all cases: 72 h
U2OS [1] = assay: relative viability EC50 (midpoint between 100% and the lowest measured viability); higher = less toxic
HepG2 [2] = assay: as above
Caco-2 [3] = assay: as above
Vero E6 [4] = assay: drug sensitivity score (DSS) for viability; higher = more toxic; extreme values may be limits of the assay
U2OS [5] = assay: as above
HepG2 [6] = assay: as above
Caco-2 [7] = assay: as above
Calu-3 [8] = assay: as above
Vero E6 [9] = assay: cell viability relative to DMSO; higher = less toxic
U2OS [10] = assay: as above
HepG2 [11] = assay: as above
Caco-2 [12] = assay: as above
Calu-3 [13] = assay: as above
Vero E6 [14] = assay: relative viability EC50 (midpoint between 100% and the lowest measured viability); higher = less toxic
Calu-3 [15] = assay: as above

Structure (SMILES) | relative viability EC50 (U2OS [1]) [µM] | relative viability EC50 (HepG2 [2]) [µM] | relative viability EC50 (Caco-2 [3]) [µM] | drug sensitivity score (Vero E6 [4]) | drug sensitivity score (U2OS [5]) | drug sensitivity score (HepG2 [6]) | drug sensitivity score (Caco-2 [7]) | drug sensitivity score (Calu-3 [8]) | cell viability (Vero E6 [9]; 1 nM) [%] | cell viability (Vero E6 [9]; 10 nM) [%] | cell viability (Vero E6 [9]; 100 nM) [%] | cell viability (Vero E6 [9]; 1000 nM) [%] | cell viability (Vero E6 [9]; 10000 nM) [%] | cell viability (U2OS [10]; 1 nM) [%] | cell viability (U2OS [10]; 10 nM) [%] | cell viability (U2OS [10]; 100 nM) [%] | cell viability (U2OS [10]; 1000 nM) [%] | cell viability (U2OS [10]; 10000 nM) [%] | cell viability (HepG2 [11]; 1 nM) [%] | cell viability (HepG2 [11]; 10 nM) [%] | cell viability (HepG2 [11]; 100 nM) [%] | cell viability (HepG2 [11]; 1000 nM) [%] | cell viability (HepG2 [11]; 10000 nM) [%] | cell viability (Caco-2 [12]; 1 nM) [%] | cell viability (Caco-2 [12]; 10 nM) [%] | cell viability (Caco-2 [12]; 100 nM) [%] | cell viability (Caco-2 [12]; 1000 nM) [%] | cell viability (Caco-2 [12]; 10000 nM) [%] | cell viability (Calu-3 [13]; 1 nM) [%] | cell viability (Calu-3 [13]; 10 nM) [%] | cell viability (Calu-3 [13]; 100 nM) [%] | cell viability (Calu-3 [13]; 1000 nM) [%] | cell viability (Calu-3 [13]; 10000 nM) [%] | relative viability EC50 (Vero E6 [14]) [µM] | relative viability EC50 (Calu-3 [15]) [µM]
C#Cc1cccc(Nc2ncnc3cc4c(cc23)OCCOCCOCCO4)c1 [icotinib] | > 10 | > 10 | > 10 | 3.5 | 0 | 0 | 0.8 | 7.2 | 91.5 | 100 | 92 | 81.8 | 66.9 | 96.4 | 95.6 | 98.1 | 93.7 | 96.6 | 86.4 | 103 | 87.7 | 102 | 99.4 | 104 | 100 | 98.5 | 87.4 | 90.7 | 93.8 | 104 | 90.2 | 66.1 | 50.8 | – | –
CNC(=O)c1ccc(Nc2ncc(C(F)(F)F)c(NCc3nccnc3N(C)S(C)(=O)=O)n2)cc1 [defactinib] | > 10 | – | > 10 | 2.6 | 1.5 | 3.6 | 0 | 0 | 106 | 99.8 | 101 | 84.2 | 76 | 98.2 | 100 | 93.8 | 96.5 | 75 | 100 | 95.2 | 107 | 81.4 | 68.1 | 95.4 | 101 | 90.1 | 100 | 89.9 | 97.5 | 86.2 | 106 | 88.1 | 95.6 | > 10 | > 10
CC(C)CNc1nc(-c2cccc3ncccc23)cn2c(-c3ccc(C(=O)NC4CC4)cc3)cnc12 [Mps-BAY-2a] | – | 0.255 | > 10 | 5.9 | 1.4 | 9.3 | 3.8 | 0 | 95.7 | 94.5 | 90.1 | 71.1 | 62.2 | 101 | 97.6 | 103 | 99.1 | 70.6 | 87.9 | 100 | 86 | 57.4 | 47.6 | 93.1 | 82.9 | 93.1 | 79.4 | 79.9 | 107 | 98.5 | 104 | 103 | 93 | – | > 10
O=C1c2ccccc2C(=O)C1c1ccccc1 [phenindione] | > 10 | > 10 | > 10 | – | 0 | 0 | 0 | 0 | – | – | – | – | – | 105 | 97.9 | 103 | 99.3 | 102 | 89.4 | 110 | 93.7 | 98.5 | 101 | 88.5 | 89.3 | 99.4 | 94.1 | 101 | 108 | 85.4 | 100 | 95.2 | 106 | – | > 10
Nc1ccn([C@@H]2O[C@H](CO)[C@@H](O)[C@@H]2O)c(=O)n1 [cytarabine] | – | 0.09 | > 10 | 2.7 | 1.6 | 15.2 | 2.1 | 2.4 | 95.8 | 96.5 | 93.5 | 95.1 | 62.1 | 103 | 94.3 | 96.3 | 96.9 | 72.8 | 95.2 | 100 | 66.4 | 42.1 | 38.7 | 106 | 97 | 90.7 | 85.9 | 80.6 | 99.6 | 93.8 | 91.9 | 88.6 | 70.9 | – | –
N=C(N)c1ccc(/C=C/c2ccc(C(=N)N)cc2O)cc1 [hydroxystilbamidine] | > 10 | – | > 10 | 0 | 0 | 3 | 0 | 0 | 96.7 | 100 | 101 | 97.5 | 89.4 | 98 | 95.6 | 96.2 | 98.6 | 106 | 108 | 96.6 | 93.1 | 95.5 | 56.2 | 97.7 | 99.2 | 103 | 104 | 93.7 | 110 | 107 | 101 | 102 | 97.3 | > 10 | > 10
Cc1ccc(C(=O)Nc2ccc(S(=O)(=O)O)c3cc(S(=O)(=O)O)cc(S(=O)(=O)O)c23)cc1NC(=O)c1cccc(NC(=O)Nc2cccc(C(=O)Nc3cc(C(=O)Nc4ccc(S(=O)(=O)O)c5cc(S(=O)(=O)O)cc(S(=O)(=O)O)c45)ccc3C)c2)c1 [suramin] | > 10 | > 10 | > 10 | – | 0 | 0 | 0 | 0 | – | – | – | – | – | 99.9 | 94.7 | 99.4 | 96.7 | 100 | 97.4 | 109 | 102 | 103 | 91.8 | 93.5 | 94.5 | 99 | 90.9 | 97.5 | 96.3 | 101 | 94.8 | 103 | 111 | – | > 10
CCC1(C)CC(=O)NC1=O (stereo not drawn) [ethosuximide] | > 10 | – | > 10 | 0 | 0 | – | 0 | 0 | 99.2 | 106 | 101 | 103 | 96.6 | 102 | 93.4 | 102 | 99.6 | 100 | – | – | – | – | – | 87 | 77.2 | 88.5 | 84.8 | 84.6 | 110 | 93.6 | 89.8 | 107 | 94 | > 10 | > 10
CCCCCCCCCCCCCCCCCCCCCCCCC(=O)O [pentacosanoic-acid] | > 10 | > 10 | > 10 | – | 0 | 0 | 0 | 0 | – | – | – | – | – | 98.3 | 98.5 | 97.4 | 95.9 | 106 | 112 | 109 | 98 | 102 | 111 | 99.2 | 106 | 103 | 96.8 | 101 | 91.9 | 97.1 | 92.5 | 92.2 | 102 | – | > 10
CN1CCN(c2c(F)cc3c(=O)c(C(=O)O)cn(CCF)c3c2F)CC1 [fleroxacin] | > 10 | – | > 10 | 0 | 0 | – | 0 | 0 | 102 | 105 | 97.6 | 101 | 98.1 | 96.5 | 93.6 | 104 | 97.1 | 102 | – | – | – | – | – | 102 | 97.2 | 100 | 96.8 | 107 | 88 | 106 | 102 | 108 | 107 | > 10 | > 10
CC1(C)NC(=O)N(c2ccc([N+](=O)[O-])c(C(F)(F)F)c2)C1=O [nilutamide] | > 10 | – | > 10 | 0 | 0 | – | 0 | 0 | 106 | 97.1 | 104 | 94.8 | 96.8 | 96 | 104 | 98.2 | 94.8 | 103 | – | – | – | – | – | 102 | 107 | 117 | 107 | 90.5 | 106 | 100 | 94.7 | 104 | 92.7 | > 10 | > 10
CC(C)(C)NCC(O)c1cc(Cl)c(N)c(C(F)(F)F)c1 (stereo not drawn) [mabuterol] | > 10 | – | > 10 | 0 | 0 | – | 0.1 | 0 | 89.1 | 92 | 92.4 | 91.6 | 104 | 97.2 | 93.6 | 98.8 | 97.7 | 93.3 | – | – | – | – | – | 87.6 | 110 | 99.1 | 112 | 85.7 | 102 | 97 | 99.6 | 92.8 | 98.2 | > 10 | > 10
CC(=O)O[C@]1(C(C)=O)CC[C@H]2[C@@H]3CCC4=CC(=O)CC[C@]4(C)[C@H]3CC[C@@]21C [hydroxyprogesterone-acetate] | > 10 | > 10 | > 10 | – | 0 | 0 | 0 | 0 | – | – | – | – | – | 99.2 | 101 | 106 | 99.9 | 98.7 | 98.7 | 95.5 | 110 | 90.3 | 102 | 95.8 | 98.6 | 90.2 | 104 | 98.9 | 103 | 115 | 91.3 | 95.7 | 93.8 | – | > 10
O=C(O)CCCCN(CCc1ccccc1OCc1ccc(CCc2ccccc2)cc1)Cc1ccc(C(=O)O)cc1 [cinaciguat] | – | > 10 | > 10 | – | – | 0 | 0 | – | – | – | – | – | – | – | – | – | – | – | 106 | 110 | 98.9 | 109 | 105 | 110 | 110 | 104 | 86 | 104 | – | – | – | – | – | – | –
Cn1c([N+](=O)[O-])cnc1COC(N)=O [ronidazole] | > 10 | – | > 10 | 0 | 0 | – | 0 | 0 | 98 | 103 | 93.7 | 98.7 | 108 | 96.4 | 97.9 | 99.8 | 97.9 | 99.5 | – | – | – | – | – | 89.2 | 93.5 | 107 | 95.2 | 101 | 95.6 | 98.6 | 95.3 | 92 | 103 | > 10 | > 10
NC(=S)N/N=C/c1ncccc1N [triapine] | – | 2.34 | – | 3.9 | 1 | 5 | 2.4 | 1.2 | 97 | 98.3 | 98.1 | 92.3 | 50.3 | 96.8 | 99.6 | 95.8 | 102 | 72.8 | 103 | 97.7 | 119 | 93 | 30.6 | 97.2 | 98.7 | 95.3 | 92.1 | 68.6 | 106 | 94.1 | 101 | 101 | 70.5 | – | –
